Source: patent US20210298297A1, “MOSQUITO ATTRACTANTS” (Wageningen Universiteit, priority 2018, published 2021)

What was measured:
Anopheles coluzzii = assay: Dual-port olfactometer preference test of IAC and IAC blends; type: in vivo; details: for behavioural response on supplementing parasite-free odour with the IAC alone: individual IAC, at least two concentrations, with parasite-free odour (socks) vs parasite-free odour alone
Method: Six IAC (heptanal, octanal, nonanal, (E)-2-octenal, (E)-2-decenal and 2-octanone) were tested in a background of odour from the worn nylon socks of twelve parasite-free children (18S qPCR confirmed). Each sock pair was cut into twelve strips after removing the foot part, then 12 bundles were made, each containing a strip from each individual. Bundles were stored at −20° C. until, and between, experiments. IAC were positioned downwind and separated from sock bundles by a metal grid, ensuring no contact. Parasite-free odour (bundles) was tested with or without individual IAC (in 10 μL hexane on filter paper) and against the same but with hexane alone.
Next, we verified whether the IAC could improve a mosquito lure for monitoring or mass trapping of Anopheles. Heptanal, the most promising candidate from the above experiment, was tested as well as two blends: Plas 5 contained the IAC that were associated with parasitological positivity (nonanal, heptanal, octanal, (E)-2-decenal and (E)-2-octenal), and Plas 6 additionally contained the gametocyte-associated 2-octanone (FIG. 3). Each of Plas 5 and Plas 6 were made up in hexane by weighing the appropriate amounts of constituent compounds into a volumetric flask. […] Plas 5 and Plas 6 were tested with the synthetic lure MB5^36 at four concentrations, each decreasing by a factor of 10 from the 100% concentration by serial dilution.
MB5 was presented on nylon strips as described in Menger et al. (2014)^36 (except the five compounds were incubated onto a single 5×26.5 cm nylon strip instead of five narrower strips). 10 μl of the Plas5 or Plas6 blend at 100% or serial dilution was pipetted onto a filter paper and added in the same olfactometer trap.
A triple chamber dual-port olfactometer^59 was used to test the preference of 30 five- to eight-day-old female, non blood-fed Anopheles coluzzii (Suokoko strain^21, rearing procedures as published previously^21) for parasite free odour or MB5, supplemented with IAC or IAC blends, against background odour alone (parasite-free odour or MB5). Mosquitoes were maintained in a release cage prior to testing (for 16-22 hours). Experiments took place during the last four hours of the scotophase under near-dark conditions (<1 lux). Mosquitoes were allowed to fly for 15 minutes, then those that had entered the traps with test/control odours were counted. Each IAC/concentration combination was tested eight-nine times on different days, and each Plas concentration 10-11 times on different days, rotating treatments between the left and right port of the olfactometer. Climatic data (R.H., temperature and air pressure) were recorded in the flight chambers and in the surrounding room.
Generalized linear models (GLMs) were used to test the effect of odours (individual IAC/heptanal/Plas blends) on relative attractiveness (the proportion of mosquitoes selecting the test odour). GLMs were run as described above (statistical analysis, attractiveness of ‘infected odour’ (socks) by cage assays), testing parameters associated with the set-up as additional factors or covariates in the model, and retaining when significant (P<0.05, F-test). Sets of compounds were run in separate models. SPSS® was used for the analyses.

[1] = test system: Anopheles coluzzii antennae; assay: Gas chromatography-electroantennography (GC-EAG) of pooled odour samples; details: analytes in pooled foot odour extracts; >3 responses of 6/7 repetitions = EAG-active
Method: Porapak filters were eluted using re-distilled diethyl ether (750 μL), and, to approximate an “average” odour per category, extracts were pooled according to the individual's parasitological status: (1) Plasmodium infection, no gametocytes (2) high-density P. falciparum gametocytes (3) parasite-free individuals, (4) Plasmodium infection, sub-microscopic P. falciparum gametocytes. Aliquots (400 μL) of extracts were mixed, then concentrated (to 60 μL) under a stream of nitrogen (charcoal-filtered). Glassware, charcoal filters and PTFE tubing were cleaned as before.
GC-EAG was conducted during the scotophase, using four- to eight- day-old, unfed female Anopheles coluzzii (N′gousso strain^56). Adults were maintained at 70% RH, with a 12 h light/dark cycle (scotophase 09:00-21:00) and access to 50% glucose solution. The order of testing blends was determined by a 5×5 Latin square (including control blend). The mosquito head was dissected, and the palps, proboscis, and half of the terminal (13th) antennal flagellomere cut off. The indifferent electrode was inserted into the back of the head and the antennal tips guided into the recording electrode to complete the circuit (FIG. 3). Electrodes were hand-pulled glass tips inserted over silver wire (diameter 0.37 mm; Harvard Apparatus, Edenbridge, UK) and filled with Ringers' solution^15. […] The eluate was split to the FID detector and EAG interface at a ratio of 1:1. At the EAG interface, the eluate passed from the heated splitter column to a stream of charcoal filtered, humidified air (flow rate 400 mL/min). This airflow was directed over the antenna at a distance of 5 mm. The signal was amplified ×10,000 by the Intelligent Data Acquisition Controller-4, and signals were analysed using EAD 2000 software (both Syntech®, Hilversum, The Netherlands). Responses were signified by a depolarisation of sufficient amplitude. Peaks that elicited responses in more than 3, of the 6/7 total repetitions, were considered to be EAG-active.

| Compound | behavioural response on supplementing parasite-free odour with the IAC alone (Anopheles coluzzii) | proportion of mosquitoes selecting the test odour (GLM, 95 CI) (Anopheles coluzzii; 10 μL heptanal at 10^−8 g/mL added to parasite-free odour (socks) vs parasite-free odour alone) | effect on attractiveness of parasite-free odour (Anopheles coluzzii; heptanal at 10^−7 g/mL added to parasite-free odour vs parasite-free odour alone) | attractiveness of MB5 supplemented with the compound relative to control MB5 (Anopheles coluzzii; three concentrations, data not shown) | antennal (EAG) response [1] |
| --- | --- | --- | --- | --- | --- |
| CCCCCCC(C)=O [2-octanone] | did not induce altered behavioural responses | – | – | – | – |
| CCCCCCC/C=C/C=O [(E)-2-decenal] | did not induce altered behavioural responses | – | – | – | – |
| CCCCC/C=C/C=O [(E)-2-octenal] | did not induce altered behavioural responses | – | – | – | – |
| CCCCCCC=O [heptanal] | – | 0.60-0.84 | no effect | equally attractive | elicit antennal response |
| CCCCCCCCC=O [nonanal] | did not induce altered behavioural responses | – | – | – | elicit antennal response |
| CCCCCCCC=O [octanal] | did not induce altered behavioural responses | – | – | – | elicit antennal response |
